According to ChEMBL document CHEMBL1201862, “PubChem BioAssay data set” (2004):
Active and inactive are the calls of the source.

What was measured:
Cannabinoid receptor 2 [1] = target: T1, Cannabinoid receptor 2 (Homo sapiens, UniProt P34972); assay: SAR analysis of agonists of the Cannabinoid Receptor 2 using an Image-Based Assay - Set 2. [Related pubchem assays (depositor defined):AID1961, AID1965]; assay type: functional
[2] = target: T2, G-protein coupled receptor 35 (Homo sapiens, UniProt Q9HC97); assay: SAR analysis of Agonists of the GPR35 Receptor using an Image-Based Assay - Set 3. [Related pubchem assays (depositor defined):AID1961, AID1965]; assay type: functional
T2 sequence (Q9HC97 whole entry): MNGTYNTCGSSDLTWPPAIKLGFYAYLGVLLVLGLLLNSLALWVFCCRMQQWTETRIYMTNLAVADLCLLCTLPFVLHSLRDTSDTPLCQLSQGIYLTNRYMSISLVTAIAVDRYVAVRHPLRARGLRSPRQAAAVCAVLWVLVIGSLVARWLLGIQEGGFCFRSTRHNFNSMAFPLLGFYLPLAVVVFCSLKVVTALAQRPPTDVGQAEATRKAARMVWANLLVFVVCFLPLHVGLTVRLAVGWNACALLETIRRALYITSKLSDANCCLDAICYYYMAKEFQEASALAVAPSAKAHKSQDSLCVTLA

[3] = target: T2, G-protein coupled receptor 35; assay: SAR analysis of Antagonists of the GPR35 Receptor using an Image-Based Assay - Set 4. [Related pubchem assays (depositor defined):[…]]; assay type: functional
[4] = target: G-protein coupled receptor 55 (Homo sapiens, UniProt Q9Y2T6); assay: SAR analysis of selective Agonists of GPR55 using an Image-Based Assay - Set 2. [Related pubchem assays (depositor defined):AID1961, AID1965]; assay type: functional
Sequence of G-protein coupled receptor 55 (Q9Y2T6 whole entry): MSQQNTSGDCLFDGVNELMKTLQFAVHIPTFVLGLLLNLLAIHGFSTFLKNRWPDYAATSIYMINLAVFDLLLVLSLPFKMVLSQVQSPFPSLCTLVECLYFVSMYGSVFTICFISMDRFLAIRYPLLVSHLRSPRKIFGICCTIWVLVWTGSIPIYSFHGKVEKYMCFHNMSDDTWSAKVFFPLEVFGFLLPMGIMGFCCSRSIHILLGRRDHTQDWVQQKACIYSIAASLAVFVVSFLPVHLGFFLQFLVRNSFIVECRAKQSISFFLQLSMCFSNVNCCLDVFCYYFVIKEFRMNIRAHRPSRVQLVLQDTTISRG

Cannabinoid receptor 1 [5] = target: T3, Cannabinoid receptor 1 (Homo sapiens, UniProt P21554); assay: SAR analysis of antagonists of the Cannabinoid Receptor 1 using an Image-Based Assay - Set 3. [Related pubchem assays (depositor defined):AID1961, AID1965]; assay type: functional
T3 sequence (P21554 whole entry): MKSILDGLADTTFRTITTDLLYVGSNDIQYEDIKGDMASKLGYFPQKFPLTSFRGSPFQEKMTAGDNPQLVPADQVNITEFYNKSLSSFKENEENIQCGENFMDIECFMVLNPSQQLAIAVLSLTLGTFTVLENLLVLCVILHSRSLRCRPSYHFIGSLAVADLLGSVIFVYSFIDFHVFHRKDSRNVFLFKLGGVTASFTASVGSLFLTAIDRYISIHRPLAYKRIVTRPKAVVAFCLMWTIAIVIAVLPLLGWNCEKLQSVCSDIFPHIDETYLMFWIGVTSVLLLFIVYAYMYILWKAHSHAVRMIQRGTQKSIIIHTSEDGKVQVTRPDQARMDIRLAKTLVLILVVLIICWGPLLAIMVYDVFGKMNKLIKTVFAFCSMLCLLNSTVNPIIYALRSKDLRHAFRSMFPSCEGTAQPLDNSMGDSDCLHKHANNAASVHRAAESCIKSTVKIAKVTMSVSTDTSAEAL

Cannabinoid receptor 1 [6] = target: T3, Cannabinoid receptor 1; assay: SAR analysis of agonists of the Cannabinoid Receptor 1 using an Image-Based Assay - Set 3. [Related pubchem assays (depositor defined):AID1961, AID1965]; assay type: functional
Cannabinoid receptor 2 [7] = target: T1, Cannabinoid receptor 2; assay: SAR analysis of antagonists of the Cannabinoid Receptor 2 using an Image-Based Assay - Set 2. [Related pubchem assays (depositor defined):AID1961, AID1965]; assay type: functional
Ion channel NompC = Ion channel NompC (Danio rerio, UniProt Q7T1G6); assay: Dose response cell-based high-throughput screening assay for agonists of the transient receptor potential channel N1 (TRPN1). [Related pubchem assays (depositor defined):AID1424, AID1448]; assay type: functional
Sequence of Ion channel NompC (Q7T1G6 whole entry): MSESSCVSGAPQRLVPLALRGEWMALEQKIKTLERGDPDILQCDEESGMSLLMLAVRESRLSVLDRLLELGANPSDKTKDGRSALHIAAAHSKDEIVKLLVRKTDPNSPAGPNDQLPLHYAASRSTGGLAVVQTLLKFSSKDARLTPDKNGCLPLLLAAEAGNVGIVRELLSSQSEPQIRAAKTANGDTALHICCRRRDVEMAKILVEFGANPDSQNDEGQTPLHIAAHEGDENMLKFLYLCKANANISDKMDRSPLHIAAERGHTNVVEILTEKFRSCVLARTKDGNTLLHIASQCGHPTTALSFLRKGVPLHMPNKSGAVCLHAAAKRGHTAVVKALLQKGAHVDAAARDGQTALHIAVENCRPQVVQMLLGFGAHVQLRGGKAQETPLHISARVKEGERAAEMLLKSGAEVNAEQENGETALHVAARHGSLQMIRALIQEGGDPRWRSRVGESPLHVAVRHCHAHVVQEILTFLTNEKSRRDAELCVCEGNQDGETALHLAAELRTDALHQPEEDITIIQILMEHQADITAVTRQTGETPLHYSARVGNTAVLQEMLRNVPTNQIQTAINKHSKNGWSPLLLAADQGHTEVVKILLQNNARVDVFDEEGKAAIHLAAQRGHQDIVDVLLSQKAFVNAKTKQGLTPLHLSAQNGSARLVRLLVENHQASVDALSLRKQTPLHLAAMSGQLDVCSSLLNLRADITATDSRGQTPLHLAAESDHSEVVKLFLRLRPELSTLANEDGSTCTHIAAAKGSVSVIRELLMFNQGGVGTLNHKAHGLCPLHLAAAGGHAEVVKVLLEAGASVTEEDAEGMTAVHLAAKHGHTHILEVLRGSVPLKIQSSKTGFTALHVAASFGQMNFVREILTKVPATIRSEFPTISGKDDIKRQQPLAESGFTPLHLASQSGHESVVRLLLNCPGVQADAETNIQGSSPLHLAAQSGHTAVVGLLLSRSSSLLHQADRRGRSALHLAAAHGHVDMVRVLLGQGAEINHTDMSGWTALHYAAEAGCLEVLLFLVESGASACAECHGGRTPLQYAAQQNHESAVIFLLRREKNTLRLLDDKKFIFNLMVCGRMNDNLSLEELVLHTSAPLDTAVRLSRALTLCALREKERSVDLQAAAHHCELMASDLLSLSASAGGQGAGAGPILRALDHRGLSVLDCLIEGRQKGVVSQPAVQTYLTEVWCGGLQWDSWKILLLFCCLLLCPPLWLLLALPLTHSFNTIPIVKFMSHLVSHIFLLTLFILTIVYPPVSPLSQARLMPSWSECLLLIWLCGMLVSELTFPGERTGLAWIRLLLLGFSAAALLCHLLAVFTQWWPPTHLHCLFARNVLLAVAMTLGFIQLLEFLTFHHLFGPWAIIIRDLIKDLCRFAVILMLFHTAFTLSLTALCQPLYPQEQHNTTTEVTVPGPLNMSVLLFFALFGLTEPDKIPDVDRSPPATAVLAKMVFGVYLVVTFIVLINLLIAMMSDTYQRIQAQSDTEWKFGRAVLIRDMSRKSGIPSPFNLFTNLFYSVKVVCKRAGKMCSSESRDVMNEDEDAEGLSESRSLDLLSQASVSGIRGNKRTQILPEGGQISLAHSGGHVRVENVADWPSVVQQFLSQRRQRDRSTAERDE

Mucolipin-3 = target: T4, Mucolipin-3 (Homo sapiens, UniProt Q8TDD5); assay: Fluorescence counterscreen assay for […] agonists: dose response cell-based high-throughput screening assay to identify agonists of the transient receptor potential channel ML3 (TRPML3). [Related pubchem assays: 1424, 1448 ]; assay type: functional
T4 sequence (Q8TDD5 whole entry): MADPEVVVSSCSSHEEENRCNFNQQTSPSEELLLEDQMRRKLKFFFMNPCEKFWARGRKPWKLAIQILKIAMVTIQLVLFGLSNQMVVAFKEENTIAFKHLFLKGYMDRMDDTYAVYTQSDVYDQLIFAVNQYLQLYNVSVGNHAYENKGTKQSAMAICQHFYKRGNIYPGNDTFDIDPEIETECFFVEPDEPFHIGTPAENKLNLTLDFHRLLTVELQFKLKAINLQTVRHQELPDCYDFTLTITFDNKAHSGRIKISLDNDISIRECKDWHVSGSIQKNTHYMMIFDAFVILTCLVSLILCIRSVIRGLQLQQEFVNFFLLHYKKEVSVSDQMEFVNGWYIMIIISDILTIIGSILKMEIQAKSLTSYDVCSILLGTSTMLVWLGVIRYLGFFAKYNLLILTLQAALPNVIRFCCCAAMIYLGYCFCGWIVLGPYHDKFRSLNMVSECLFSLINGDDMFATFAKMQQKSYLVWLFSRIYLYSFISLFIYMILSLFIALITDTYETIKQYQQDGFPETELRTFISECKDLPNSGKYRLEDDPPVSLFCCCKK

Tumor necrosis factor = Tumor necrosis factor (Homo sapiens, UniProt P01375); assay: TNFa-triggered NF-kB activation inhibitors, SAR follow-up, cell-based, revised (AID 2337); assay type: functional
Sequence of Tumor necrosis factor (P01375 whole entry): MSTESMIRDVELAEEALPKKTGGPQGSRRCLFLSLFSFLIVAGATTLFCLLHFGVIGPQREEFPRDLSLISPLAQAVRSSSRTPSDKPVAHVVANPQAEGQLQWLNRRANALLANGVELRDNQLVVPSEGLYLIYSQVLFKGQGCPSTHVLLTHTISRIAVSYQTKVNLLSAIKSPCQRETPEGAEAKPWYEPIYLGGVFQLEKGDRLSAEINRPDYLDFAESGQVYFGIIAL

HEK293 = assay: cells; settings: Homo sapiens;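 also: cells exposed to compound for 14 hours overnight before viability readout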
CAAX prenyl protease 1 = CAAX prenyl protease 1 (Saccharomyces cerevisiae S288c, UniProt P47154); assay: Ste24 protease inhibitors, dose response, biochemical, S. cerevisiae, plate reader, cherry-pick (AID 488815)
Sequence of CAAX prenyl protease 1 (P47154 whole entry): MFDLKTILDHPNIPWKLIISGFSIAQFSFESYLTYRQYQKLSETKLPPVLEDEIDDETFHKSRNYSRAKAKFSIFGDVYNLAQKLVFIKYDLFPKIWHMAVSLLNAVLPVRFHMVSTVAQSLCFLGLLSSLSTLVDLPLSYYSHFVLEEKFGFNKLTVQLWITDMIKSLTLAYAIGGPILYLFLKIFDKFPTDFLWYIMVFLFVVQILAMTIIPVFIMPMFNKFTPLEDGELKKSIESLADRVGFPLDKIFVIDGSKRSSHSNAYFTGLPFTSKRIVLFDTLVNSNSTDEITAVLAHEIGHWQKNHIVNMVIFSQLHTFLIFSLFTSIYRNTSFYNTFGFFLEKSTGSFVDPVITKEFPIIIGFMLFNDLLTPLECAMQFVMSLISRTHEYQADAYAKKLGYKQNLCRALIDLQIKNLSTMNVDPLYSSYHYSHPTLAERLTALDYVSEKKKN

[8] = target: T5, Sentrin-specific protease 7 (Homo sapiens, UniProt Q9BQF6); assay type: functional;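 also: Luminescence-based dose-response confirmation of ultra-high-throughput screening hits, measuring inhibition of SENP7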
T5 sequence (Q9BQF6 whole entry): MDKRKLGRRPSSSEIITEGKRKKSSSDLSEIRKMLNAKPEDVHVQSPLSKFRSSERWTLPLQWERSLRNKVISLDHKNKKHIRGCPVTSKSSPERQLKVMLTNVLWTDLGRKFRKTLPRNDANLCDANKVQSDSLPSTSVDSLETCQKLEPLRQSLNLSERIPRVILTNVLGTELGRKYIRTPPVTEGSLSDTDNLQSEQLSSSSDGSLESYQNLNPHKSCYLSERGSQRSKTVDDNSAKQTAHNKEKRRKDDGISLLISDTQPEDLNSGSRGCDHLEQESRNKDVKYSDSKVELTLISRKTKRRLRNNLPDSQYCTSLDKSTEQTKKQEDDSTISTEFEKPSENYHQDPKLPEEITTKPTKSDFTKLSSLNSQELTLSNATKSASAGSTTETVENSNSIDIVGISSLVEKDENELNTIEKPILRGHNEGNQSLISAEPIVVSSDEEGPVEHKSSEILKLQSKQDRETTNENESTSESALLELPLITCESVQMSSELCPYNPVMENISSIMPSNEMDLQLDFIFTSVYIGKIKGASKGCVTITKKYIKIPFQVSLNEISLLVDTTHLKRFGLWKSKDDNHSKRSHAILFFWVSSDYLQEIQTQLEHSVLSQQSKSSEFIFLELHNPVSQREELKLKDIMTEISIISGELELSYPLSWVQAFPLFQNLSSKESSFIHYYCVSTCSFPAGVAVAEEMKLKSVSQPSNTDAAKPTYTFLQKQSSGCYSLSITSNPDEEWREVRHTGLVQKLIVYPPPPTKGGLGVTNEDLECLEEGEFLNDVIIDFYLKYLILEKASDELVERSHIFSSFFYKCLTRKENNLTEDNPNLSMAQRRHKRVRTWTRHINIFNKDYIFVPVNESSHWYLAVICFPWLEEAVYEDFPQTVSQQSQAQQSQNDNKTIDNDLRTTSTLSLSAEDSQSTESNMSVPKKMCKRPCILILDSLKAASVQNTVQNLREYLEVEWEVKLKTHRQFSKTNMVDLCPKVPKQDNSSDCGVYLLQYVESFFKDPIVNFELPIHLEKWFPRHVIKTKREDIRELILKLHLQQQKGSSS

Large T antigen = Large T antigen (Simian virus 40, UniProt P03070); assay type: functional, Betapolyomavirus macacae;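 also: Confirmatory-stage PubChem screen for compounds that inhibit SV40 T antigen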
Sequence of Large T antigen (P03070 whole entry): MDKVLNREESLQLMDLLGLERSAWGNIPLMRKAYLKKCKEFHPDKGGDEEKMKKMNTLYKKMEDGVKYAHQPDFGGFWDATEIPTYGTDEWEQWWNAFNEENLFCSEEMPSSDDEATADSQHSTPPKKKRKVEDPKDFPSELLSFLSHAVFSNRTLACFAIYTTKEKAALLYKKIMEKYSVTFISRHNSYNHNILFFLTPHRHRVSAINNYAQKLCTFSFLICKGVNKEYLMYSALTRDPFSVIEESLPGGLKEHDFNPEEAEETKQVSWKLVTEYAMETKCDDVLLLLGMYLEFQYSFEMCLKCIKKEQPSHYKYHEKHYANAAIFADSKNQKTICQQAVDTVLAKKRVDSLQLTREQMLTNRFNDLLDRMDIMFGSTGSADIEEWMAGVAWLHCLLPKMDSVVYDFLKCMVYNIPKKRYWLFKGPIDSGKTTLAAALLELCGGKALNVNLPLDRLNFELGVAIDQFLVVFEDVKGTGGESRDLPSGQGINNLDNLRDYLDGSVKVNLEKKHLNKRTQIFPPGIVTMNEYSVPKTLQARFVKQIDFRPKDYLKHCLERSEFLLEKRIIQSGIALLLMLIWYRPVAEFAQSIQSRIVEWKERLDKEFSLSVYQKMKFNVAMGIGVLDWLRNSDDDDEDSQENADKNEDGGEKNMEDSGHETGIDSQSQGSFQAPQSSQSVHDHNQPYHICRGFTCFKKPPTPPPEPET

[9] = target: T6, Sentrin-specific protease 8 (Homo sapiens, UniProt Q96LD8); assay type: functional;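 also: luminescence read-out of SENP8 inhibition, dose-response confirmation following an ultra-high-throughput screen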
T6 sequence (Q96LD8 whole entry): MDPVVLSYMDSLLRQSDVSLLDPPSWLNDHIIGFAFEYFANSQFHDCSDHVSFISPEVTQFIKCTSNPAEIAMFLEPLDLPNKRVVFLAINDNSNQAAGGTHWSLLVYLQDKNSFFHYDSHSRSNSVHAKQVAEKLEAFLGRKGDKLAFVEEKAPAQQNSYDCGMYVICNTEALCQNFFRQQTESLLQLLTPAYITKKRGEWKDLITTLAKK

CAAX prenyl protease 2 = target: T7, CAAX prenyl protease 2 (Homo sapiens, UniProt Q9Y256); assay: human Rce1 protease inhibitors, dose response, biochemical, yeast membranes, quenched-peptide fluorescence, cherry-pick (AID 588849)
T7 sequence (Q9Y256 whole entry): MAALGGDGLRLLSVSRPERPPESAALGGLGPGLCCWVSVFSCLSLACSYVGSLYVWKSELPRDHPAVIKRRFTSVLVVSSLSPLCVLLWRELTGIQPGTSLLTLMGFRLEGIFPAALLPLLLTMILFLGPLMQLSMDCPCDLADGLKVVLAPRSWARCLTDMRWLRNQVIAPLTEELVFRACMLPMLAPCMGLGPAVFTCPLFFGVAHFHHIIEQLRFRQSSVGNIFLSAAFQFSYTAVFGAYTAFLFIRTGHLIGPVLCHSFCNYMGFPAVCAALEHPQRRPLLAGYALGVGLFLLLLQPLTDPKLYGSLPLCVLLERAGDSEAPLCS

Trypsin = Trypsin (Sus scrofa, UniProt P00761); assay: porcine trypsin inhibitors, dose response, selectivity assay for Rce1 protease inhibitor project, biochemical, quenched peptide fluorescence, cherry-pick (AID 488789)
Sequence of Trypsin (P00761 whole entry): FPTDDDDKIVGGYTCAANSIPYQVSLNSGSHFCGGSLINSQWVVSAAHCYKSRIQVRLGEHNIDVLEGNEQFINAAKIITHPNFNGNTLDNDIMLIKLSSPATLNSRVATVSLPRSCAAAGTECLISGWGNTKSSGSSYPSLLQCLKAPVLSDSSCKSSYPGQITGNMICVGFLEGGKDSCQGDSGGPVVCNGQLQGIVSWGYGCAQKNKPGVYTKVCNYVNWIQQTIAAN

Caspase-3 = target: T8, Caspase-3 (Homo sapiens, UniProt P42574); assay type: functional;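 also: Dose-response selectivity test against caspase-3 for candidate inhibitors of sentrin-specific proteases (SENPs)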
T8 sequence (P42574 whole entry): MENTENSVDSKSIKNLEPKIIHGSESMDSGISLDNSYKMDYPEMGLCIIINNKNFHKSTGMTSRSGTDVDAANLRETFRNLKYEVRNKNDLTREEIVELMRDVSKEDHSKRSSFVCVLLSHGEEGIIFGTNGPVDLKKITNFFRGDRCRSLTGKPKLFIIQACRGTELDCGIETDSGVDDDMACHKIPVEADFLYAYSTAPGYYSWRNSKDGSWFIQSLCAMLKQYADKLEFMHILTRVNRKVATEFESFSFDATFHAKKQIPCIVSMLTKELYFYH

[10] = target: T9, Sentrin-specific protease 6 (Homo sapiens, UniProt Q9GZR1); assay type: functional;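 also: Luminescence-based dose-response confirmatory assay of SENP6 inhibition, following up an ultra-high-throughput screen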
T9 sequence (Q9GZR1 whole entry): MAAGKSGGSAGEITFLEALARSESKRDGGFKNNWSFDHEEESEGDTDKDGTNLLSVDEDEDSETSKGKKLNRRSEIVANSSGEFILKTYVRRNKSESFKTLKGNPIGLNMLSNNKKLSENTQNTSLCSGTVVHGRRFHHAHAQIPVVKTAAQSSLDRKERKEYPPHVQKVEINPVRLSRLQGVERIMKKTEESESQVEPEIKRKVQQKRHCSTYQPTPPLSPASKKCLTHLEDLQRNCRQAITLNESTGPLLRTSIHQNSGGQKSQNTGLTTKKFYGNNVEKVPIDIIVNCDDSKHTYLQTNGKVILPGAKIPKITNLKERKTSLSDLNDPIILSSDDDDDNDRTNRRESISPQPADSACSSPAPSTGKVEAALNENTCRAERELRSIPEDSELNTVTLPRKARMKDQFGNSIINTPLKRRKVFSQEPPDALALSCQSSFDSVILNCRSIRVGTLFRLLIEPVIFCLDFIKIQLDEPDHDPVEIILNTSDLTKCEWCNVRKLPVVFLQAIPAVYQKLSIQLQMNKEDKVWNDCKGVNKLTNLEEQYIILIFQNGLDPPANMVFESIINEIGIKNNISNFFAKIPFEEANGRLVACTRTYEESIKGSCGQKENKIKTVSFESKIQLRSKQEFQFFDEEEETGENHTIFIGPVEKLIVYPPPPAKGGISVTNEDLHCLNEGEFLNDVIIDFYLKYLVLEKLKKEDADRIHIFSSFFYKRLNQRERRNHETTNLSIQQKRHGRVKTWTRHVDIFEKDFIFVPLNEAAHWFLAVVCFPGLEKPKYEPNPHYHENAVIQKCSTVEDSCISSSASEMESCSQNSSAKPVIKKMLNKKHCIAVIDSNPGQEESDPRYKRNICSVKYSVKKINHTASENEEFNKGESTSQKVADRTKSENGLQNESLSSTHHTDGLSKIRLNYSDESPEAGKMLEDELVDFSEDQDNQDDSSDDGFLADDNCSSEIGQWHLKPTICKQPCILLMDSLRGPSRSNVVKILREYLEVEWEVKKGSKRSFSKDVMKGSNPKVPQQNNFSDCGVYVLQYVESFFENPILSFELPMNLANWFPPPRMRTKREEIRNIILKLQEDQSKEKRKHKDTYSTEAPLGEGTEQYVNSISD

Kallikrein-7 = Kallikrein-7 (Homo sapiens, UniProt P49862); assay: Fluorescence Intensity-based biochemical primary high throughput dose response assay to identify activators of kallikrein-7 (K7) zymogen.
Sequence of Kallikrein-7 (P49862 whole entry): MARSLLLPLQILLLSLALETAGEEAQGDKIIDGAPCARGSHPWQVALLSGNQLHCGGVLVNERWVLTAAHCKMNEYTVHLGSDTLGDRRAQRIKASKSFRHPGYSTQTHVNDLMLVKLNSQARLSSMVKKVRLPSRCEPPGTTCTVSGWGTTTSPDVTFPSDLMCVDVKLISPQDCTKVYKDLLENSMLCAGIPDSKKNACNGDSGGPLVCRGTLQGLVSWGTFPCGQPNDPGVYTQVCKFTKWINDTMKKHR

T1 sequence (P34972 whole entry): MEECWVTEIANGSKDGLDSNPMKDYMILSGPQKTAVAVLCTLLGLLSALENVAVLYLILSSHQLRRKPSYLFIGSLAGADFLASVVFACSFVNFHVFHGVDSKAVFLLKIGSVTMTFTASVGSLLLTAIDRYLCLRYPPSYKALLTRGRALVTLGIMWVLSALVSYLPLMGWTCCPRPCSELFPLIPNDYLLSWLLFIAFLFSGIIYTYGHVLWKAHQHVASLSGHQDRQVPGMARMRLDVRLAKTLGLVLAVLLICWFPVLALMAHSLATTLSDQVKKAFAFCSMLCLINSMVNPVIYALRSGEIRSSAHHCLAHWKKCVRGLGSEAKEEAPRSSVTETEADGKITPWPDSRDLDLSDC

EC50 (Cannabinoid receptor 2 [1]) | EC50 [2] | IC50 [3] | EC50 [4] | IC50 (Cannabinoid receptor 1 [5]) | EC50 (Cannabinoid receptor 1 [6]) | IC50 (Cannabinoid receptor 2 [7]) | AC50 (CAAX prenyl protease 1) | AC50 (CAAX prenyl protease 2) | AC50 (Trypsin) | Structure (SMILES) | other results
> 32 µM (inactive) | > 32 µM (inactive) | > 32 µM (inactive) | > 32 µM (inactive) | > 32 µM (inactive) | > 32 µM (inactive) | > 32 µM (inactive) | – | – | – | O=C(Nc1cc(S(=O)(=O)N2CCOCC2)ccc1OCC(F)(F)F)c1ccc(N2CCCC2=O)cc1 | –
– | – | – | – | – | – | – | – | – | – | Cc1ccc(NS(=O)(=O)c2ccc(C(=O)OCC(=O)Nc3cc(C)on3)cc2)cc1 | EC50 (Ion channel NompC): > 29.9 µM (inactive); EC50 (Mucolipin-3): > 29.9 µM (not active)
– | – | – | – | – | – | – | – | – | – | CC(=O)N1CCc2cc(S(=O)(=O)N3CCN(c4ccc([N+](=O)[O-])cc4)CC3)ccc21 | IC50 (Tumor necrosis factor): > 20 µM (inactive); IC50 (HEK293): > 20 µM (inactive)
– | – | – | – | – | – | – | 4.39 µM (active) | 6.52 µM (active) | 10.8 µM (active) | Oc1ccc(-c2nc3ccccn3c2NCc2ccco2)cc1 | IC50 [8]: 16 µM (active); IC50 (Large T antigen): 11.4 µM (active); IC50 [9]: 81.9 µM (active); IC50 (Caspase-3): 17.6 µM (active); IC50 [10]: 54.4 µM (active)
– | – | – | – | – | – | – | 1.72 µM (active) | 6.01 µM (active) | 28.5 µM (active) | CCC(C)NC(=O)c1cc2c(=O)n3cccc(C)c3nc2s1 (stereo not given) | EC50 (Kallikrein-7): > 69.6 µM (inactive)
> 32 µM (inactive) | > 32 µM (inactive) | > 32 µM (inactive) | > 32 µM (inactive) | 4.98 µM (active) | > 32 µM (inactive) | > 32 µM (inactive) | – | – | – | CCOc1ccc(S(=O)(=O)N2CCOCC2)cc1NC(=O)c1ccc(N2CCCC2=O)cc1 | –
